# Measured values: patent US7700610B2, “Use of tyrosine kinase inhibitors for treating allergic diseases” (AB Science, priority 2001, dated 2010)
# Experiments:
# [1] = test system: dog afflicted with severe atopic dermatitis; settings: 3 year old dog with severe atopic dermatitis, 3 mg/kg/d together with cefalexine and ketoconazole
# dog cutaneous mast cells = settings: in vitro, Garcia and DeMora, Am J Vet Res 1997; cited from earlier work
structure (smiles),measurement,setting,value
Cc1ccc(NC(=O)c2ccc(CN3CCN(C)CC3)cc2)cc1Nc1nccc(-c2cccnc2)n1 [4-(4-méthylpipérazine-1-ylméthyl)-N-[4-méthyl-3-[(4-pyridine-3-yl-)pyrimidine-2Yl)amino-)]phényl]-benzamide],superficial pyodermatitis and generalized Malassezia dermatitis following treatment (FIG. 3),[1],resolution of the superficial pyodermatitis and generalized Malassezia dermatitis
CCOC(=O)N1CCC(=C2c3ccc(Cl)cc3CCc3cccnc32)CC1 [loratadine],inhibition of histamine release,dog cutaneous mast cells,potent inhibition
same,prodegranulating effect,dog cutaneous mast cells,without a substantial prodegranulating effect
